The source of these data is patent publication US9546179B2, “Heterocycle amido alkyloxy substituted quinazoline derivative and use thereof” (priority 2011, dated 2017).

The structures appear in SMILES notation.

T1 sequence (P00533 25-1210): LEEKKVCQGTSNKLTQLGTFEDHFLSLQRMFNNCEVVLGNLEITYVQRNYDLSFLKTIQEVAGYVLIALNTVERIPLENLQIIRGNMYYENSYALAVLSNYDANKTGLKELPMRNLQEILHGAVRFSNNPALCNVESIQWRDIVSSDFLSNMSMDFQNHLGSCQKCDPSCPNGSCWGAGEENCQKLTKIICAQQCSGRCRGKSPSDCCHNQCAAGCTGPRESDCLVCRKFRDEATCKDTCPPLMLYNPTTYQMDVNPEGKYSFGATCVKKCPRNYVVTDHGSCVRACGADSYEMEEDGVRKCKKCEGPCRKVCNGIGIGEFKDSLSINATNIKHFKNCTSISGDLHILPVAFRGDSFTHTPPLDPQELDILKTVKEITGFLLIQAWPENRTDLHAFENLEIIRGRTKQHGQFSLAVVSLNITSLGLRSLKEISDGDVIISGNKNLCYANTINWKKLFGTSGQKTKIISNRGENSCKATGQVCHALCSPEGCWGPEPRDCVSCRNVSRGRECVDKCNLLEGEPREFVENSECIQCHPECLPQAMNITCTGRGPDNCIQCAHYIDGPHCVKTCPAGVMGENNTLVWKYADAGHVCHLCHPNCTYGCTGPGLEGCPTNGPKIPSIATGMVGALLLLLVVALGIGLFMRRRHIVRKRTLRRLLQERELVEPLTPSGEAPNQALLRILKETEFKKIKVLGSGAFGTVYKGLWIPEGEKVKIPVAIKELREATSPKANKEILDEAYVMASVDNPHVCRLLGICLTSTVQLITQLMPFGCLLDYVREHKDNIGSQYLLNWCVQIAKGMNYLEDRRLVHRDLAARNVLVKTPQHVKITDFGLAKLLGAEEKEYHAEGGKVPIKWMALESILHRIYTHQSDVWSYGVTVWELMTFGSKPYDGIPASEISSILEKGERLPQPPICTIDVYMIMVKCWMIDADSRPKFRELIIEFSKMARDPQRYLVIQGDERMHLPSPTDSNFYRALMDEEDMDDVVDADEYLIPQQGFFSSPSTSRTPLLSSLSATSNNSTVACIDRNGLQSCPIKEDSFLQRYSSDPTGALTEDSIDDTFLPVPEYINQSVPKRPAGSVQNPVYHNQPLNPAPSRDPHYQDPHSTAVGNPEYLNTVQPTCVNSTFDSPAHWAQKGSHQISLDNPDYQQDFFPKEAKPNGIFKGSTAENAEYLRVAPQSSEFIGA

This assay concerns the target T1, receptor tyrosine kinase EGFR (Homo sapiens, UniProt P00533).
T1 construct: purchased Shanghai 3bio Technology Co., Ltd. Lot No. 4018780925
Description: Inhibitory effect on receptor tyrosine kinase EGFR (ELISA, Poly(Glu, Tyr)4:1, PY99 antibody). Type of assay: biochemical. The conditions noted are these: ATP 4 μM, 1 hour at 37° C. The method, then: Poly(Glu, Tyr)4:1 was diluted into 100 μg/ml by PBS without potassium. Enzyme label plate was coated with 37 μl/well at 37° C. overnight,
The liquid in the wells was removed. The plate was rinsed by T-PBS for 5 minutes, and dried at 37° C. after repeated 3 times.
The testing sample was diluted to the concentration concerned by reaction buffer solution, and added into the wells of the coated enzyme label plate. The concentration diluted should realize 1.0000 μg/ml, 0.1250 μg/ml, 0.0156 μg/ml, 0.00195 μg/ml and 0.00024 μg/ml in the 100 μl reaction.
Adding in ATP solution (4 μM of final concentration) diluted by reaction buffer solution,
Finally, the tyrosine kinase diluted by reaction buffer solution was added, and forming the reaction with 100 μl total volume.
Meanwhile, negative control wells and enzyme-free control wells were prepared. The reaction was kept in the dark wet box for 1 hour at 37° C. The plate was rinsed by T-PBS for three times after the reaction ended, and blocked by 1% BSA […] for 30 min, and then, PY99 antibody (1:1000 diluted by 0.05% PBST with 1% BSA) was added in 100 μl/well. After incubated at 37° C. for 30 minutes, the plate was rinsed by T-PBS for three times, and the goat anti-mouse IgG marked with HRP (1 mg/ml 1:1000 diluted by 0.05% PBST with 1% BSA) was then added in 100 μl/well. After incubated at 37° C. for 30 minutes, the plate was rinsed by T-PBS for three times.
Colorimetric solution OPD was added in 100 μl/well for 20 minutes' reaction in the dark side at the room temperature. Colorimetric substrate solution OPD was the solution of 0.1 mol/L citric acid-disodium hydrogen phosphate buffer (pH 5.0) with 20 mmol/L OPD and 12 mmol/L H2O2 (freshly prepared when using).
50 μl of 2M H2SO4 (2 mol/L sulfuric acid containing 0.1 mol/L sodium sulfate) was added in to terminate the reaction, and the A492 value was read with adjustable wavelength micro late enzyme-labeling instrument VERSAmax.
The inhibition rate of samples is calculated by the following formula: […]
On the technique in general: An ELISA detects its analyte on a solid surface through an enzyme-linked reagent.
For the compound `[2H]C([2H])([2H])Oc1cc2ncnc(Nc3ccc(F)c(Cl)c3)c2cc1OCCCN1CC2(CNC(=O)O2)C1` [Example 97, 4-(3′-chloro-4′-fluorophenylamino)-6-[3-(5-oxa-2,7-diazaspiro[3.4]octane-6-ketone-2-yl)-propoxy]-7-deuterated methoxyquinazoline], the IC50 was in the range of 100 to 1000 nM.
`COc1cc2ncnc(Nc3cc(Cl)ccc3F)c2cc1OCCCN1CC2(CNC(=O)C2)C1` [Example 27] returned an IC50 of 10 to 100 nM.
Take `COc1cc2ncnc(Nc3cccc(Cl)c3F)c2cc1OCCCN1CCC2(CC1)CNC(=O)O2` [Example 34, 4-(3′-chloro-2′-fluorophenylamino)-6-[3-(1-oxa-3,8-diazaspiro[4.5]decane-2-ketone-8-yl)-propoxy]-7-methoxyquinazoline]: the IC50 lay within 0.1 to 10 nM.
The same measure for `COc1cc2ncnc(Nc3cccc(Cl)c3F)c2cc1OCCCN1CCC2(COC2)C1` [Example 28, 4-(3′-chloro-2′-fluorophenylamino)-6-[3-(2-oxa-6-azaspiro[3.4]octane-6-yl)-propoxy]-7-methoxyquinazoline]: 10 to 100 nM; for `C#Cc1cccc(Nc2ncnc3cc(OC)c(OCCCN4CCC5(CCC(=O)N5)CC4)cc23)c1` [Example 74, 4-(3′-ethynylphenylamino)-6-[3-(1,8-diazaspiro[4.5]decane-2-ketone-8-yl)-propoxy]-7-methoxyquinazoline]: 10 to 100 nM; for `COc1cc2ncnc(Nc3ccc(F)c(Cl)c3)c2cc1OCCN1CCC2(CC1)CNC(=O)C2` [Example 63, 4-(3′-chloro-4′-fluorophenylamino)-6-[2-(2,8-diazaspiro[4.5]decane-3-ketone-8-yl)-oxethyl]-7-methoxyquinazoline]: 100 to 1000 nM.
The same measure for `COc1cc2ncnc(Nc3cc(Cl)ccc3F)c2cc1OCCCN1CCC2(CCOC2)C1` (stereo not shown) [Example 15, 4-(5′-chloro-2′-fluorophenylamino)-6-[3-(2-oxa-7-azaspiro[4.4]nonane-7-yl)-propoxy]-7-methoxyquinazoline]: 10 to 100 nM; for `COc1cc2ncnc(Nc3cc(Cl)ccc3F)c2cc1OCCCN1CCC2(CC1)CCN(C)C2=O` [Example 26, 4-(5′-chloro-2′-fluorophenylamino)-6-[3-(2-methyl-2,8-diazaspiro[4.5]decane-1-ketone-8-yl)-propoxy]-7-methoxyquinazoline]: 10 to 100 nM.
`COc1cc2ncnc(Nc3cc(Cl)ccc3F)c2cc1OCCCN1CCC2(CCN(C)C2)C1` (stereo not shown) [Example 64, 4-(5′-chloro-22′-fluorophenylamino)-6-[3-(7-methyl-2,7-diazaspiro[4.4]nonane-2-yl)-propoxy]-7-methoxyquinazoline] returned an IC50 of 10 to 100 nM.
As for `C#Cc1cccc(Nc2ncnc3cc(OC)c(OCCCN4CC5(CNC(=O)C5)C4)cc23)c1` [Example 45, 4-(3′-ethynylphenylamino)-6-[3-(2,6-diazaspiro[3.4]octane-7-ketone-2-yl)-propoxy]-7-methoxyquinazoline], the figure is 10 to 100 nM; as for `COc1cc2ncnc(Nc3cccc(Cl)c3F)c2cc1OCCCN1CC2(CNC(=O)O2)C1` [Example 36, 4-(3′-chloro-2′-fluorophenylamino)-6-[3-(5-oxa-2,7-diazaspiro[3.4]octane-6-ketone-2-yl)-propoxy]-7-methoxyquinazoline], 0.1 to 10 nM.
As for `COc1cc2ncnc(Nc3cc(Cl)ccc3F)c2cc1OCCCN1CCC2(CCN(C)C2=O)C1` (stereo not shown) [Example 23, 4-(5′-chloro-2′-fluorophenylamino)-6-[3-(2-methyl-2,7-diazaspiro[4.4]nonane-1-ketone-7-yl)-propoxy]-7-methoxyquinazoline], the figure is 10 to 100 nM.
As for `COc1cc2ncnc(Nc3cccc(Cl)c3F)c2cc1OCCCN1CC2(C1)CN(C)C(=O)O2` [Example 37, 4-(3′-chloro-2′-fluorophenylamino)-6-[3-(7-methyl-5-oxa-2,7-diazaspiro[3.4]octane-6-ketone-2-yl)-propoxy]-7-methoxyquinazoline], the figure is 0.1 to 10 nM; as for `C#Cc1cccc(Nc2ncnc3cc(OC)c(OCCCN4CCC5(CCN(C)C5=O)C4)cc23)c1` (stereo not shown) [Example 71, 4-(3′-ethynylphenylamino)-6-[3-(2-methyl-2,7-diazaspiro[4.4]-nonane-1-ketone-7-yl)-propoxy]-7-methoxyquinazoline], 10 to 100 nM; as for `C#Cc1cccc(Nc2ncnc3cc(OC)c(OCCCN4CCC5(CC4)CNC(=O)O5)cc23)c1` [Example 46, 4-(3′-ethynylphenylamino)-6-[3-(1-oxa-3,8-diazaspiro[4.5]decane-2-ketone-8-yl)-propoxy]-7-methoxyquinazoline], 10 to 100 nM.
Turning to `C#Cc1cccc(Nc2ncnc3cc(OC)c(OCCCN4CCC5(CCOC5)C4)cc23)c1` (stereo not shown) [Example 40, 4-(3′-ethynylphenylamino)-6-[3-(2-oxa-7-azaspiro[4.4]-nonane-7-yl)-propoxy]-7-methoxyquinazoline], the IC50 lay in the range of 10 to 100 nM.
As for `C#Cc1cccc(Nc2ncnc3cc(OC)c(OCCCN4CCC5(CC4)CNC(=O)C5)cc23)c1` [Example 43, 4-(3′-ethynylphenylamino)-6-[3-(2,8-diazaspiro[4.5]decane-3-ketone-8-yl)-propoxy]-7-methoxyquinazoline], the figure is 10 to 100 nM; as for `COc1cc2ncnc(Nc3cc(Cl)ccc3F)c2cc1OCCCN1CCC2(CCC(=O)N2)CC1` [Example 25, 4-(5′-chloro-2′-fluorophenylamino)-6-[3-(1,8-diazaspiro[4.5]decane-2-ketone-8-yl)-propoxy]-7-methoxyquinazoline], 10 to 100 nM.
The same measure for `COc1cc2ncnc(Nc3ccc(F)c(Cl)c3)c2cc1OCCCN1CCC2(CCCN(C(=O)OC(C)(C)C)C2)C1` (stereo not shown) [Example 77, 4-(3′-chloro-4′-4-fluorophenylamino)-6-[3-(7-tertbutyloxycarbonyl-2,7-diazaspiro[4.5]decane-2-yl)-propoxy]-7-methoxyquinazoline]: greater than 1000 nM; for `COc1cc2ncnc(Nc3ccc(F)c(Cl)c3)c2cc1OCCN1CCC2(CC1)CNC(=O)O2` [Example 58, 4-(3′-chloro-4′-fluorophenylamino)-6-[2-(1-oxa-3,8-diazaspiro[4.5]decane-2-ketone-8-yl)-oxethyl]-7-methoxyquinazoline]: 100 to 1000 nM; for `C#Cc1cccc(Nc2ncnc3cc(OC)c(OCCCN4CC5(COC5)C4)cc23)c1` [Example 38, 4-(3′-ethynylphenylamino)-6-[3-(2-oxa-6-azaspiro[3.3]heptane-6-yl)-propoxy]-7-methoxyquinazoline]: 10 to 100 nM.
In the case of `[2H]C([2H])([2H])Oc1cc2ncnc(Nc3ccc(F)c(Cl)c3)c2cc1OCCCN1CCC2(C1)CN(C)C(=O)O2` (stereo not shown) [Example 96, 4-(3′-chloro-4′-fluorophenylamino)-6-[3-(3-methyl-1-oxa-3,7-diazaspiro[4.4]nonane-2-ketone-7-yl)-propoxy]-7-deuterated methoxyquinazoline], the IC50 was 10 to 100 nM.
The same measure for `C#Cc1cccc(Nc2ncnc3cc(OC)c(OCCCN4CCC5(CCNC5=O)CC4)cc23)c1` [Example 72, 4-(3′-ethynylphenylamino)-6-[3-(2,8-diazaspiro[4.5]decane-1-ketone-8-yl)-propoxy]-7-methoxyquinazoline]: 10 to 100 nM; for `COc1cc2ncnc(Nc3cc(Cl)ccc3F)c2cc1OCCCN1C2CCC1COC2` [Example 16, 4-(5′-chloro-2′-fluorophenylamino)-6-[3-(3-oxa-8-azabicyclo[3.2.1]octane-8-yl)-propoxy]-7-methoxyquinazolin]: 10 to 100 nM.
The same measure for `COc1cc2ncnc(Nc3cc(Cl)ccc3F)c2cc1OCCCN1CCC2(CCN(C(C)=O)C2)C1` (stereo not shown) [Example 19, 4-(5′-chloro-2′-fluorophenylamino)-6-[3-(7-acetyl-2,7-diazaspiro[4.4]-nonane-2-yl)-propoxy]-7-methoxyquinazoline]: 10 to 100 nM; for `COc1cc2ncnc(Nc3ccc(F)c(Cl)c3)c2cc1OCCCN1CCC2(CCN(C)C2)C1` (stereo not shown) [Example 76, 4-(3′-chloro-4′-fluorophenylamino)-6-[3-(7-methyl-2,7-diazaspiro[4.4]nonane-2-yl)-propoxy]-7-methoxyquinazoline]: 10 to 100 nM; for `COc1cc2ncnc(Nc3ccc(F)c(Cl)c3)c2cc1OCCCN1CCC2(CC1)CC(=O)N(C)C2` [Example 83, 4-(3′-chloro-4′-fluorophenylamino)-6-[3-(2-methyl-2,8-diazaspiro[4.5]decane-3-ketone-8-yl)-propoxy]-7-methoxyquinazoline]: 0.1 to 10 nM.
The same measure for `C#Cc1cccc(Nc2ncnc3cc(OC)c(OCCCN4CCC5(CC4)CCN(C)C5=O)cc23)c1` [Example 44, 4-(3′-ethynylphenylamino)-6-[3-(2-methyl-2,8-diazaspiro[4.5]decane-3-ketone-8-yl)propoxy]-7-methoxyquinazoline]: 10 to 100 nM.

Usually IC50 stands for the concentration at which inhibition is half-maximal. The low end stands for higher potency, the high end for lower potency.
